Experimental data reported in paper PMC8509773, “3-Pyridinylidene Derivatives of Chemically Modified Lupane and Ursane Triterpenes as Promising Anticancer Agents by Targeting Apoptosis” (International Journal of Molecular Sciences, 2021).

How the values were obtained:
Assay in all cases: NCI-60 SRB screening (one-dose and five-dose)
Assay type in all cases: cell-based, human
UACC-62 = details: UACC-62, 10 μM, 48 h
Procedure: (§1) The compounds were added at a single concentration and the cell cultures were incubated for 48 h. The end point determinations were made with a protein binding dye, sulforhodamine B (SRB). […] The percentage of growth was evaluated spectrophotometrically versus controls not treated with test agents after 48-h exposure and using SRB protein assay to estimate cell viability or growth. […] Furthermore, mean graph midpoints (MG_MID) were calculated for each of the parameters, giving an average activity parameter over all cell lines for the tested compound. For the MG_MID calculation, insensitive cell lines were included with the highest concentration tested.

PC-3 = details: PC-3, 10 μM, 48 h
Procedure: as §1

A498 = details: A498, 10 μM, 48 h
Procedure: as §1

NCI-H226 = details: NCI-H226, 10 μM, 48 h
Procedure: as §1

DU-145 = details: DU-145, 10 μM, 48 h
Procedure: as §1

MOLT-4 = details: MOLT-4, 10 μM, 48 h
Procedure: as §1

SK-MEL-5 = details: SK-MEL-5, 10 μM, 48 h
Procedure: as §1

SNB-19 = details: SNB-19, 10 μM, 48 h
Procedure: as §1

RXF 393 = details: RXF 393, 10 μM, 48 h
Procedure: as §1

786-0 = details: 786-0, 10 μM, 48 h
Procedure: as §1

A549/ATCC = details: 10 μM, 48 h
Procedure: as §1

SF-295 = details: SF-295, 10 μM, 48 h
Procedure: as §1

M14 = details: M14, 10 μM, 48 h
Procedure: as §1

MDA-MB-231/ATCC = details: 10 μM, 48 h
Procedure: as §1

UO-31 = details: UO-31, 10 μM, 48 h
Procedure: as §1

SW-620 = details: SW-620, 10 μM, 48 h
Procedure: as §1

OVCAR-5 = details: OVCAR-5, 10 μM, 48 h
Procedure: as §1

HOP-92 = details: HOP-92, 10 μM, 48 h
Procedure: as §1

TK-10 = details: TK-10, 10 μM, 48 h
Procedure: as §1

HOP-62 = details: HOP-62, 10 μM, 48 h
Procedure: as §1

NCI/ADR-RES = details: 10 μM, 48 h
Procedure: as §1

SK-MEL-28 = details: SK-MEL-28, 10 μM, 48 h
Procedure: as §1

SN12C = details: 10 μM, 48 h
Procedure: as §1

HL-60(TB) = details: 10 μM, 48 h
Procedure: as §1

HCC-2998 = details: HCC-2998, 10 μM, 48 h
Procedure: as §1

T-47D = details: T-47D, 10 μM, 48 h
Procedure: as §1

RPMI-8226 = details: RPMI-8226, 10 μM, 48 h
Procedure: as §1

UACC-257 = details: UACC-257, 10 μM, 48 h
Procedure: as §1

MCF7 = details: MCF7, 10 μM, 48 h
Procedure: as §1

OVCAR-3 = details: OVCAR-3, 10 μM, 48 h
Procedure: as §1

LOX IMVI = details: 10 μM, 48 h
Procedure: as §1

OVCAR-4 = details: OVCAR-4, 10 μM, 48 h
Procedure: as §1

HS 578T = details: 10 μM, 48 h
Procedure: as §1

NCI-H23 = details: NCI-H23, 10 μM, 48 h
Procedure: as §1

CCRF-CEM = details: 10 μM, 48 h
Procedure: as §1

MALME-3M = details: 10 μM, 48 h
Procedure: as §1

SNB-75 = details: SNB-75, 10 μM, 48 h
Procedure: as §1

NCI-H322M = details: 10 μM, 48 h
Procedure: as §1

NCI-H522 = details: NCI-H522, 10 μM, 48 h
Procedure: as §1

BT-549 = details: BT-549, 10 μM, 48 h
Procedure: as §1

Structure (SMILES) | Growth Percent (UACC-62) | Growth Percent (PC-3) | Growth Percent (A498) | Growth Percent (NCI-H226) | Growth Percent (DU-145) | Growth Percent (SK-MEL-5) | Growth Percent (SNB-19) | Growth Percent (RXF 393) | Growth Percent (786-0) | Growth Percent (A549/ATCC) | Growth Percent (SF-295) | Growth Percent (M14) | Growth Percent (MDA-MB-231/ATCC) | Growth Percent (UO-31) | Growth Percent (SW-620) | Growth Percent (OVCAR-5) | Growth Percent (HOP-92) | Growth Percent (TK-10) | Growth Percent (HOP-62) | Growth Percent (NCI/ADR-RES) | further results
CC(=O)[C@H]1C[C@]23CC[C@]4(C)[C@H](CC[C@@H]5[C@@]6(C)CCC(=O)C(C)(C)[C@@H]6CC[C@]54C)[C@H]2[C@H](C)[C@@]1(C)OC3 [Compound 2, 3-oxo-21β-acetyl-20β,28-epoxy-18α,19βH-ursane] | 85.81% | 87.23% | 67.96% | 95.16% | 98.96% | 100.12% | 98.03% | 76.40% | 89.64% | 93.03% | 99.35% | 107.08% | 85.22% | 66.99% | 95.81% | 96.55% | 95.88% | 76.40% | 80.72% | 102.89% | Growth Percent (MOLT-4): 100.88%; Growth Percent (SK-MEL-28): 109.33%; Growth Percent (SN12C): 87.69%; Growth Percent (HL-60(TB)): 133.26%; Growth Percent (HCC-2998): 109.84%; Growth Percent (T-47D): 106.29%; Growth Percent (RPMI-8226): 102.14%; Growth Percent (UACC-257): 103.91%; Growth Percent (MCF7): 90.80%; Growth Percent (OVCAR-3): 119.38%; Growth Percent (LOX IMVI): 94.48%; Growth Percent (OVCAR-4): 85.13%; Growth Percent (HS 578T): 103.91%; Growth Percent (NCI-H23): 90.60%; Growth Percent (CCRF-CEM): 104.98%; Growth Percent (MALME-3M): 109.60%; Growth Percent (SNB-75): 72.80%; Growth Percent (NCI-H322M): 106.71%
C[C@H]1[C@@H]2[C@H]3CC[C@@H]4[C@@]5(C)CC[C@H](O)C(C)(C)[C@@H]5CC[C@@]4(C)[C@]3(C)CC[C@]23CO[C@@]1(C)[C@@H](C(=O)/C=C/c1ccco1)C3 [Compound 5, 3β-Hydroxy-21-[3-(2E-furyl)-prop-2-en-1-one]-20β,28-epoxy-18α,19βH-ursane] | 7.16% | 92.69% | 96.19% | 99.66% | 102.22% | 8.55% | 75.34% | 109.55% | 103.94% | 103.89% | 109.70% | 34.35% | 82.90% | 77.02% | 97.06% | 102.21% | 65.36% | 97.40% | 104.25% | 95.25% | Growth Percent (NCI-H522): 87.83%; Growth Percent (SK-MEL-28): 36.66%; Growth Percent (SN12C): 100.53%; Growth Percent (HCC-2998): 104.00%; Growth Percent (T-47D): 84.80%; Growth Percent (RPMI-8226): 105.93%; Growth Percent (UACC-257): −8.91%; Growth Percent (MCF7): 101.23%; Growth Percent (OVCAR-3): 102.55%; Growth Percent (LOX IMVI): 89.02%; Growth Percent (OVCAR-4): 111.19%; Growth Percent (HS 578T): 95.83%; Growth Percent (NCI-H23): 98.55%; Growth Percent (BT-549): 104.50%; Growth Percent (CCRF-CEM): 100.63%; Growth Percent (MALME-3M): −11.31%; Growth Percent (SNB-75): 78.39%; Growth Percent (NCI-H322M): 88.29%
COC(=O)[C@]12CC[C@@H](C(C)=O)[C@@H]1[C@H]1CC[C@@H]3[C@@]4(C)C/C(=C\c5cccnc5)C(=O)C(C)(C)[C@@H]4CC[C@@]3(C)[C@]1(C)CC2 [Compound 8, Methyl 3,20-dioxo-2-(3-pyridinylidene)-29-nor-lup-28-oate] | 34.54% | 24.42% | 80.56% | 48.05% | 68.80% | 39.76% | 67.72% | 30.89% | 84.87% | 51.40% | 75.30% | 56.69% | 76.56% | 56.64% | 25.33% | 114.28% | 66.73% | 132.71% | 102.96% | 52.54% | Growth Percent (NCI-H522): 47.50%; Growth Percent (MOLT-4): 5.47%; Growth Percent (SK-MEL-28): 31.54%; Growth Percent (SN12C): 57.75%; Growth Percent (HL-60(TB)): −2.67%; Growth Percent (HCC-2998): 75.76%; Growth Percent (T-47D): 24.42%; Growth Percent (RPMI-8226): 2.88%; Growth Percent (UACC-257): 58.14%; Growth Percent (MCF7): 19.18%; Growth Percent (OVCAR-3): 49.04%; Growth Percent (OVCAR-4): 26.68%; Growth Percent (HS 578T): 74.77%; Growth Percent (NCI-H23): 53.20%; Growth Percent (BT-549): 46.03%; Growth Percent (CCRF-CEM): 7.57%; Growth Percent (MALME-3M): 29.95%; Growth Percent (SNB-75): 110.35%; Growth Percent (NCI-H322M): 93.90%
